Measured values as given in patent US5294617A, “Angiotensin II receptor blocking 2,3,6 substituted quinazolinones” (American Cyanamid Company, priority 1993, dated 1994).
“And” between values parts separate entries of the source, which are not always exact repeats. Identical values can stand only once.

Tested on: ANGIOTENSIN II (AII) VASOPRESSOR RESPONSE
Experiment: AII Challenge: angiotensin II vasopressor response in conscious spontaneously hypertensive rats
Type: in vivo, Conscious Male Okamoto-Aoki SHR (rat)
Conditions: 10 mg/kg i.v.; for % Inhibition / Average Change: SHR n=2; for Response After AII / Response Change / Control Before AII: individual rat, SHR
Text: By administering a compound of this invention to a rat, and then challenging with angiotensin II, a blockage of the vasopressor response is realized.
Conscious Male Okamoto-Aoki SHR, 16-20 weeks old, weighing approximately 330 g are purchased from Charles River Labs (Wilmington, Mass.). Conscious rats are restrained in a supine position with elastic tape. The area at the base of the tail is locally anesthetized by subcutaneous infiltration with 2% procaine. The ventral caudal artery and vein are isolated, and a cannula made of polyethylene (PE) 10-20 tubing (fused together by heat) is passed into the lower abdominal aorta and vena cava, respectively. The cannula is secured, heparinized (1,000 I.U./ml), sealed and the wound is closed. The animals are placed in plastic restraining cages in an upright position. The cannula is attached to a Statham P23Db pressure transducer, and pulsatile blood pressure is recorded to 10-15 minutes with a Gould Brush recorder. (Chan et al., (Drug Development Res., 18:75-94, 1989).
Angiotensin II (human sequence, Sigma Chem. Co., St. Louis, Mo.) of 0.05 and 0.1 ug/kg i.v. is injected into all rats (predosing response). Then a test compound, vehicle or a known angiotensin II antagonist is administered i.v., i.p. or orally to each set of rats. The two doses of angiotensin II are given to each rat again at 30, 60, 90, 120, 180, 240 and 300 minutes post dosing the compound or vehicle. The vasopressor response of angiotensin II is measured for the increase in systolic blood pressure in mmHg. The percentage of antagonism or blockade of the vasopressor response of angiotensin II by a compound is calculated using the vasopressor response (increase in systolic blood pressure) of angiotensin II of each rat predosing the compound as 100%. A compound is considered active if at 30 mg/kg i.v. it antagonized at least 50% of the response.

[1] = AII 0.05 mcg/kg IV, 30 min post dose
[2] = AII 0.05 mcg/kg IV, 60 min post dose
[3] = AII 0.05 mcg/kg IV, 90 min post dose
[4] = AII 0.05 mcg/kg IV, 120 min post dose
[5] = AII 0.05 mcg/kg IV, 180 min post dose
[6] = AII 0.05 mcg/kg IV, 240 min post dose
[7] = AII 0.05 mcg/kg IV, 300 min post dose
[8] = AII 0.1 mcg/kg IV, 30 min post dose
[9] = AII 0.1 mcg/kg IV, 60 min post dose
[10] = AII 0.1 mcg/kg IV, 90 min post dose
[11] = AII 0.1 mcg/kg IV, 120 min post dose
[12] = AII 0.1 mcg/kg IV, 180 min post dose
[13] = AII 0.1 mcg/kg IV, 240 min post dose
[14] = AII 0.1 mcg/kg IV, 300 min post dose
[15] = AII 0.05 mcg/kg IV, 30 min post dose, 10 mg/kg
[16] = AII 0.05 mcg/kg IV, 60 min post dose, 10 mg/kg
[17] = AII 0.05 mcg/kg IV, 90 min post dose, 10 mg/kg
[18] = AII 0.05 mcg/kg IV, 180 min post dose, 10 mg/kg
[19] = AII 0.05 mcg/kg IV, 240 min post dose, 10 mg/kg
[20] = AII 0.05 mcg/kg IV, 300 min post dose, 10 mg/kg
[21] = AII 0.1 mcg/kg IV, 30 min post dose, 10 mg/kg
[22] = AII 0.1 mcg/kg IV, 60 min post dose, 10 mg/kg
[23] = AII 0.1 mcg/kg IV, 90 min post dose, 10 mg/kg
[24] = AII 0.1 mcg/kg IV, 120 min post dose, 10 mg/kg
[25] = AII 0.1 mcg/kg IV, 180 min post dose, 10 mg/kg
[26] = AII 0.1 mcg/kg IV, 240 min post dose, 10 mg/kg
[27] = AII 0.1 mcg/kg IV, 300 min post dose, 10 mg/kg

SMILES: CCCCc1nc2ccc([C@H]3C[C@H](CO)ON3C)cc2c(=O)n1Cc1ccc(-c2ccccc2-c2nnn[nH]2)cc1 (relative stereo) [Example 16, TRANS-2-butyl-6-[5-(hydroxymethyl)-2-methyl-3-isoxazolidinyl]-3-[[2'-(1H-tetrazol-5-yl)[1,1'-biphenyl]-4-yl]methyl]-4(3H)-quinazolinone]
- % Inhibition [1]: 85%
- Average Change [1]: 8 mmHg
- % Inhibition [2]: 76%
- Average Change [2]: 12.5 mmHg
- % Inhibition [3]: 62%
- Average Change [3]: 20 mmHg
- % Inhibition [4]: 67%
- Average Change [4]: 17.5 mmHg
- % Inhibition [5]: 50%
- Average Change [5]: 26.5 mmHg
- % Inhibition [6]: 50%
- Average Change [6]: 26.5 mmHg
- % Inhibition [7]: 19%
- Average Change [7]: 42.5 mmHg
- % Inhibition [8]: 81%
- Average Change [8]: 10 mmHg
- % Inhibition [9]: 79%
- Average Change [9]: 11.5 mmHg
- % Inhibition [10]: 77%
- Average Change [10]: 12.5 mmHg
- % Inhibition [11]: 68%
- Average Change [11]: 17.5 mmHg
- % Inhibition [12]: 54%
- Average Change [12]: 25 mmHg
- % Inhibition [13]: 54%
- Average Change [13]: 25 mmHg
- % Inhibition [14]: 26%
- Average Change [14]: 40 mmHg
- Response After AII [15]: 198 mmHg and 190 mmHg
- Response Change [15]: 3 mmHg and 13 mmHg
- Response After AII [16]: 200 mmHg and 180 mmHg
- Response Change [16]: 5 mmHg and 20 mmHg
- Response After AII [3]: 190 mmHg
- Response After AII [17]: 215 mmHg
- Response Change [17]: 10 mmHg and 30 mmHg
- Response After AII [4]: 210 mmHg
- Response Change (AII 0.05 mcg/kg IV, 120 min post dose, 10 mg/kg): 15 mmHg and 20 mmHg
- Response After AII [5]: 218 mmHg
- Response After AII [18]: 195 mmHg
- Response Change [18]: 23 mmHg and 30 mmHg
- Response After AII [6]: 218 mmHg
- Response After AII [19]: 195 mmHg
- Response Change [19]: 23 mmHg and 30 mmHg
- Response After AII [7]: 230 mmHg
- Response After AII [20]: 225 mmHg
- Response Change [20]: 35 mmHg and 50 mmHg
- Response After AII [21]: 205 mmHg and 175 mmHg
- Response Change [21]: 15 mmHg and 5 mmHg
- Response After AII [22]: 210 mmHg and 173 mmHg
- Response Change [22]: 15 mmHg and 8 mmHg
- Response After AII [10]: 210 mmHg
- Response After AII [23]: 185 mmHg
- Response Change [23]: 10 mmHg and 15 mmHg
- Response After AII [24]: 220 mmHg and 200 mmHg
- Response Change [24]: 20 mmHg and 15 mmHg
- Response After AII [25]: 215 mmHg and 205 mmHg
- Response Change [25]: 15 mmHg and 35 mmHg
- Response After AII [26]: 215 mmHg and 205 mmHg
- Response Change [26]: 15 mmHg and 35 mmHg
- Response After AII [27]: 250 mmHg and 230 mmHg
- Response Change [27]: 30 mmHg and 50 mmHg
- Control Before AII (before AII 0.05 mcg/kg IV, 30 min post dose, 10 mg/kg): 195 mmHg and 177 mmHg
- Control Before AII (before AII 0.05 mcg/kg IV, 60 min post dose, 10 mg/kg): 195 mmHg and 160 mmHg
- Control Before AII (before AII 0.05 mcg/kg IV, 90 min post dose, 10 mg/kg): 205 mmHg and 160 mmHg
- Control Before AII (before AII 0.05 mcg/kg IV, 120 min post dose, 10 mg/kg): 195 mmHg and 190 mmHg
- Control Before AII (before AII 0.05 mcg/kg IV, 180 min post dose, 10 mg/kg): 195 mmHg and 165 mmHg
- Control Before AII (before AII 0.05 mcg/kg IV, 240 min post dose, 10 mg/kg): 195 mmHg and 165 mmHg
- Control Before AII (before AII 0.05 mcg/kg IV, 300 min post dose, 10 mg/kg): 195 mmHg and 175 mmHg
- Control Before AII (before AII 0.1 mcg/kg IV, 30 min post dose, 10 mg/kg): 190 mmHg and 170 mmHg
- Control Before AII (before AII 0.1 mcg/kg IV, 60 min post dose, 10 mg/kg): 195 mmHg and 165 mmHg
- Control Before AII (before AII 0.1 mcg/kg IV, 90 min post dose, 10 mg/kg): 200 mmHg and 170 mmHg
- Control Before AII (before AII 0.1 mcg/kg IV, 120 min post dose, 10 mg/kg): 200 mmHg and 185 mmHg
- Control Before AII (before AII 0.1 mcg/kg IV, 180 min post dose, 10 mg/kg): 200 mmHg and 170 mmHg
- Control Before AII (before AII 0.1 mcg/kg IV, 240 min post dose, 10 mg/kg): 200 mmHg and 170 mmHg
- Control Before AII (before AII 0.1 mcg/kg IV, 300 min post dose, 10 mg/kg): 220 mmHg and 180 mmHg
